Reference: US12594271B2, “Combination therapy for cancer” (Health Research, Inc., priority 2019, dated 2026)
“Also recorded” adds a separate entry of the source.

Tested on: myeloid cells and T cells of 4T1 tumor-bearing mice
Assay: Flow cytometry of spleen, bone marrow and tumor cells from 4T1 tumor-bearing mice
Assay type: in vivo
Experimental: FIG. 1. […] (A) 4T1 growth in mice treated daily with BRQ (10 mg/kg, i.p.), anti-PD-1 ([…], i.p. at the indicated 3 or 4 times) or both agents. n=5 mice/group/experiment for upper and lower graphs; *P<0.01 against single-agent treatments. B-D, data shown are for analysis of A, upper graph. (B) Spontaneous metastatic lung counts; *P<0.01. Similar patterns seen in the 2nd experiment (avg. #mets): vehicle=12; BRQ=1; αPD-1=5; combo=1. (C) Splenic granulocytic (CD11b^+Ly6C^loLy6G^+) or monocytic (CD11b^+Ly6C^hiLy6G^−) numbers in non-tumor-bearing (NTB) or tumor-bearing mice were converted to a ratio for group-by-group comparison; *P<0.03. (D) Splenic CD3^+ T cell numbers in tumor-bearing mice. (E) Splenic CD8^+ T cells in A (lower graph) were assayed based on differential expression of CD44:naïve ([…]) vs. effector/central memory (hi) phenotypes. *P<0.03. Data reported as a ratio to indicate a rising memory pool. Data in B-E are at endpoint; ns, not significant.
Treatment of Tumor-Bearing Mice Alters Surface Phenotype of Myeloid Cells. […] Female BALB/c or C57BL/6 mice were orthotopically implanted with 4T1 or AT-3 mammary tumor cells, respectively, and were monitored 3 times weekly for tumor growth. When tumors became measurable (indicated by the arrow), BRQ was administered daily (10 mg/kg intraperitoneally), and at endpoint the BM cells or spleens were collected for flow cytometric analysis for the expression (i.e., percentage or MFI value) of the indicated cell surface markers (FIGS. 13-15). We extended our in vitro studies with BRQ to […] to determine the impact of BRQ on MDSC maturation. To that end, mice bearing orthotopically implanted mammary tumors were treated with or without BRQ in vivo using a similarly previously reported dose, frequency and schedule (Sykes et al. Cell 167:171-186, 2016). The first tumor model chosen was 4T1, which is an aggressive mammary tumor cell line that induces a robust MDSC response largely comprised of PMN-MDSCs.
The upper panels of FIG. 14 are representative flow cytometry plots of the non-tumor-bearing (NTB) or tumor-bearing cohorts without (vehicle) or with BRQ. The middle panel histogram represents CD101 expression on the gated (boxed) populations of the upper panels. In this case, the far-right histograms refer to the gated-boxed right dot plot (for the PMN or granulocytic subset), whereas the gated-boxed left histogram refers to the gated-boxed upper left dot plot (for the monocytic subset). […] FIG. 15 refers to the quantification of the CD101 data from non-tumor-bearing mice or tumor-bearing mice with or without BRQ, based on both the CD101 MFI values and the percentages of CD101^+ (or high-expressing) cells reflecting the monocytic subset (upper left histogram and middle left table) or the PMN-MDSC subset (upper right histogram and middle right table). The quantification appears in the lower left and right graphs. Each point represents an individual mouse.
Effect of Treatment of Tumor-Bearing Mice with BRQ on the Efficacy of Anti-Tumor Immunotherapy. […] At endpoint, BM cells or spleens were collected and analyzed for the indicated populations by flow cytometry. These experiments sought to determine whether BRQ can act in the bone marrow environment. […] The frequency of these cells approached levels seen in the non-tumor-bearing controls. […] Moreover, analysis of the systemic impact of BRQ on T cell numbers and their activation/memory state was performed on splenic population at endpoint (FIG. 20). […] This analysis at the time was not performed on cohorts treated with anti-PD-1 mAb alone or the combination, since the intent was to focus on the effect of BRQ on T cell numbers and their phenotypic states.
Treatment of Tumor-Bearing Mice with BRQ Increases the Proliferative Capacity and Activation of Intra-Tumoral T Cells. Experimental design is as described in FIG. 12. […]

[1] = 4T1, BRQ 10 mg/kg i.p. daily, spleen
[2] = 4T1 tumor-bearing mice, endpoint

Cc1c(-c2ccc(-c3ccccc3F)cc2)nc2ccc(F)cc2c1C(=O)O [BRQ, 6-Fluoro-2-(2′-fluoro-[1,1′-biphenyl]-4-yl)-3-methylquinoline-4-carboxylic acid]
CD101 expression on splenic granulocytic populations (4T1, BRQ 10 mg/kg i.p. daily): significantly increased CD101 expression | accumulation of the granulocytic population in the spleen (4T1, BRQ 10 mg/kg i.p. daily): did not significantly alter | Ly6C expression on granulocytic cells [1]: significantly higher expression of the cell surface Ly6C | Ly6G expression on granulocytic cells [1]: trended upward but did not reach statistical significance | tumor-driven expansion of myeloid progenitor populations GMP or GP in bone marrow (4T1, endpoint): reduced tumor-driven expansion | accumulation of CD11b+Gr-1+ cells in bone marrow (4T1, vs vehicle controls): reduced the accumulation of CD11b^+Gr-1^+ cells | splenic granulocyte to monocyte ratio (4T1 tumor-bearing mice vs non-tumor-bearing controls, endpoint): significantly altered the granulocyte to monocyte ratio resembling the non-tumor-bearing controls | splenic CD3+ T cell numbers [2]: did not alter; also recorded: no negative effect | splenic CD8+ T cell memory populations (ratio of memory to naïve T cells by CD44) [2]: did not alter; also recorded: no negative effect | CD44 expression on intratumoral CD8+ and CD4+ T cells (tumor tissue at endpoint): Increases in CD44 expression were similarly observed | proliferative capacity of intratumoral CD8+ and CD4+ T cells (percentages of Ki-67+ cells) (tumor tissue at endpoint): significant increases in the proliferative capacity
